Our source for the Activity values is ChEMBL document CHEMBL1159291, “Bioactive Constituents from the Flower Buds and Peduncles of Lindera megaphylla” (J Nat Prod, 1995).

Data set [1] in a line: Induction of rabbit platelet aggregation at 300 uM by turbidimetric method. In kind it is cell-based, Oryctolagus cuniculus.
Data set [2] concerns Aorta. The data set is described as follows: Inhibition of norepinephrine-induced contraction in Wistar rat aorta assessed as contraction at 120 uM preincubated 15 mins before addition of norepinephrine relative to control. In kind it is functional. Set-up: scale not given: the % may be the effect or the level left.
In data set [3] the test system is Aorta. The data set is described as follows: Inhibition of KCl-induced contraction in Wistar rat aorta assessed as contraction at 120 uM preincubated 15 mins before addition of KCl relative to control. In kind it is functional. Set-up: scale not given: the % may be the effect or the level left.
The subject of data set [4] is Platelet. The data set is described as follows: Inhibition of arachidonic acid-induced rabbit platelet aggregation assessed as aggregation at 50 uM by turbidimetric method. In kind it is functional, Oryctolagus cuniculus. Set-up: scale not given: the % may be the effect or the level left.
Data set [5] deals with Platelet. The data set is described as follows: Inhibition of collagen-induced rabbit platelet aggregation assessed as aggregation at 50 uM by turbidimetric method. In kind it is functional, Oryctolagus cuniculus. Also noted: scale not given: the % may be the effect or the level left.
The subject of data set [6] is Aorta. The data set can be described thus: Inhibition of norepinephrine-induced contraction in Wistar rat aorta assessed as contraction at 1 uM preincubated 15 mins before addition of norepinephrine relative to control. In kind it is functional. Set-up: scale not given: the % may be the effect or the level left.
In data set [7] the test system is Aorta. The data set is described as follows: Inhibition of KCl-induced contraction in Wistar rat aorta assessed as contraction at 1 uM preincubated 15 mins before addition of KCl relative to control. Also noted: scale not given: the % may be the effect or the level left. In kind it is functional.
Data set [8] concerns Platelet. The data set can be described thus: Inhibition of arachidonic acid-induced rabbit platelet aggregation assessed as aggregation at 300 uM preincubated 3 mins before arachidonic acid challenge by turbidimetric method. Set-up: scale not given: the % may be the effect or the level left. In kind it is functional, Oryctolagus cuniculus.
In data set [9] the test system is Platelet. The data set can be described thus: Inhibition of collagen-induced rabbit platelet aggregation assessed as aggregation at 300 uM preincubated 3 mins before collagen challenge by turbidimetric method. In kind it is functional, Oryctolagus cuniculus. Also noted: scale not given: the % may be the effect or the level left.
The subject of data set [10] is Aorta. The data set can be described thus: Inhibition of norepinephrine-induced contraction in Wistar rat aorta assessed as contraction at 60 uM preincubated 15 mins before addition of norepinephrine relative to control. In kind it is functional. Set-up: scale not given: the % may be the effect or the level left.
In data set [11] the test system is Aorta. The data set can be described thus: Inhibition of KCl-induced contraction in Wistar rat aorta assessed as contraction at 60 uM preincubated 15 mins before addition of KCl relative to control. In kind it is functional. Set-up: scale not given: the % may be the effect or the level left.
In data set [12] the test system is Aorta. The data set is described as follows: Inhibition of norepinephrine-induced contraction in Wistar rat aorta assessed as contraction at 9 uM preincubated 15 mins before addition of norepinephrine relative to control. In kind it is functional. Set-up: scale not given: the % may be the effect or the level left.
Data set [13] relates to Aorta. The data set is described as follows: Inhibition of KCl-induced contraction in Wistar rat aorta assessed as contraction at 9 uM preincubated 15 mins before addition of KCl relative to control. In kind it is functional. Also noted: scale not given: the % may be the effect or the level left.

With `COc1cc2cc3c4c(cc5c(c4c2cc1OC)OCO5)CCN3C` [DEHYDRODICENTRINE], the Activity entry in [1] is on record as “Not Active”; in [2], 95.5%; in data set [3], 108%.

On to `CC(=O)Oc1ccccc1C(=O)O` [ASPIRIN], for which the Activity in data set [4] came out at 0%; in [5], 85.4%.

Turning to `COC(=O)C1=C(C)NC(C)=C(C(=O)OC)C1c1ccccc1[N+](=O)[O-]` [NIFEDIPINE], the figures for the Activity in data set [6] and in data set [7] were 96.5% and 0%, respectively.

In the case of `COc1ccc2c(c1OC)-c1c3c(cc4c1[C@H](C2)N(C)CC4)OCO3`, the Activity amounted to 73% in data set [8]; 60.8% in data set [9]; 22.9% in [2]; 68.1% in data set [10]; 55.2% in data set [3]; 88.5% in data set [11].

Consider `COc1cc2c(cc1OC)-c1c3c(cc4ccnc(c14)C2=O)OCO3` [DICENTRINONE], for which the values for the Activity result in data set [1], in [2] and in [3] were “Not Active”, 112.4% and 102.1%, respectively.

As to `COc1cc2c(cc1OC)-c1c3c(cc4c1[C@H](C2)N(C)CC4)OCO3` [DICENTRINE], the Activity in data set [8] is 0%; in data set [9], 3.1%; in data set [12], 22.5%; in data set [13] it was 77.5%.
